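The compound was tested at five concentrations on cells cultured in 96-well plates, with a 48-hour exposure period. Here, GI50 denotes the concentration required for 50% inhibition of growth. TGI: concentration producing complete growth inhibition.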
What was measured:
Assay in all cases: NCI tumour cell line growth inhibition, 48 h
SN12C renal = test system: SN12C renal
HOP-62 NSCLC = test system: HOP-62 NSCLC
DU-145 prostate = test system: DU-145 prostate
HCC-2998 colon = test system: HCC-2998 colon
SF-539 CNS = test system: SF-539 CNS
MALME-3M melanoma = test system: MALME-3M melanoma
MOLT-4 leukemia = test system: MOLT-4 leukemia
MCF7 breast = test system: MCF7 breast
CCRF-CEM leukemia = test system: CCRF-CEM leukemia
NCI-H460 lung = test system: NCI-H460 lung

Compound | GI50 (SN12C renal) [µM] | TGI (SN12C renal) [µM] | GI50 (HOP-62 NSCLC) [µM] | TGI (HOP-62 NSCLC) [µM] | GI50 (DU-145 prostate) [µM] | TGI (DU-145 prostate) [µM] | GI50 (HCC-2998 colon) [µM] | TGI (HCC-2998 colon) [µM] | GI50 (SF-539 CNS) [µM] | TGI (SF-539 CNS) [µM] | GI50 (MALME-3M melanoma) [µM] | TGI (MALME-3M melanoma) [µM] | GI50 (MOLT-4 leukemia) [µM] | TGI (MOLT-4 leukemia) [µM] | GI50 (MCF7 breast) [µM] | TGI (MCF7 breast) [µM] | GI50 (CCRF-CEM leukemia) [µM] | TGI (CCRF-CEM leukemia) [µM] | GI50 (NCI-H460 lung) [µM] | TGI (NCI-H460 lung) [µM]
CC(=O)OC1C(C)OC(Oc2c(-c3ccc(O)cc3)oc3cc(O)cc(O)c3c2=O)C(O)C1OC(C)=O (stereo not given) | 27.3 | 97.5 | 35.9 | > 100 | 31.7 | > 94.1 | 21.9 | 55.2 | 29.1 | > 100 | 21.3 | > 75.2 | 26.7 | > 75 | 28.3 | > 100 | 30.2 | > 100 | 32.5 | > 100
COc1cccc(C2=C(c3cn(C)c4c(C)cccc34)C(=O)NC2=O)c1 | > 25 | > 25 | > 25 | > 25 | > 25 | > 25 | > 25 | > 25 | > 25 | > 25 | > 25 | > 25 | 16.3 | > 25 | 16.5 | > 25 | > 25 | > 25 | > 25 | > 25
O=C1C2C3C=CC(C2C(=O)N1CN1CCOCC1)C1C2C(=O)N(CN4CCOCC4)C(=O)C2C31 (stereo not given) | – | > 64.4 | – | > 100 | – | > 100 | – | > 61.2 | – | > 79.6 | – | > 100 | – | 53.3 | – | > 100 | – | 57.9 | – | > 57.5

Source: PubChem BioAssay (NCI)
